Data reported in patent US20260070944A1, “PEPTIDE PROMOTING TYROSINASE ACTIVITY AND USE THEREOF” (HYSENSBIO CO., LTD, priority 2022, published 2026).
Where no end group is shown, it is not given here.

Tested on: B16F10 cells
Assay: MTT assay, cell viability
Type: cell-based
Description: A melanocyte (B16F10) cell line was cultured using DMEM containing 10% FBS and 1% penicillin/streptomycin (PS) at 37° C. in a 5% CO2 incubator.
An MTT reagent was used by being diluted in DMEM at a concentration of 0.5 mg/mL.
B16F10 cells were seeded at 230,000 cells/well in a 6-well plate, and cultured at 37° C. in a 5% CO2 incubator for 24 hours. Subsequently, the cells were treated with peptide KH001 (SEQ ID NO: 96) at different concentrations for 72 hours to prepare the cells, and then the MTT reagent was added and allowed to react in a 37° C. incubator for 1 hour under light blocking conditions. After removing the entire medium, the generated formazan was dissolved in DMSO, and then absorbance was measured at 560 nm.
B16F10 cells were treated with the KH001 peptide at different concentrations. After 72 hours after KH001 peptide treatment, cell viability was measured using an MTT assay.

KYKQKRRSYK [KH001, KYKQKRRSYK]
cell viability compared to the control (50 μM, 100 μM and 200 μM, 72 hours, MTT): no significant difference | toxicity (at the predetermined concentrations (50, 100, 200 μM)): no toxicity
